According to ChEMBL document CHEMBL4130462, “Natural isoflavone biochanin A as a template for the design of new and potent 3-phenylquinolone efflux inhibitors against Mycobacterium avium” (Eur J Med Chem, 2017):
Converted amounts (≈) assume the structure as drawn.

Columns and labels:
Mycobacterium avium [1] = details: isolate MAV3
[2] = tested on: Mycobacterium avium subsp. avium ATCC 25291
Mycobacterium avium [3] = details: isolate MAV3; remark: listed apart in the source
[4] = Safety index, ratio of MTC for test compound to MTC for chlorpromazine for cytotoxicity in human monocyte-derived macrophages; assay type: cell-based, Macrophage cell line
Mycobacterium avium [5] = details: isolate MAV1
Description: Inhibition of multidrug resistance efflux pump in Mycobacterium avium isolate MAV1 assessed as potentiation of ciprofloxacin-induced antibacterial activity by measuring ciprofloxacin MIC at 1/4 MIC incubated for 3 days by MTT assay

Mycobacterium avium [6] = details: 104 mc'2 4
Mycobacterium avium [7] = details: isolate MAV2
Description: Inhibition of multidrug resistance efflux pump in Mycobacterium avium isolate MAV2 assessed as potentiation of ofloxacin-induced antibacterial activity by measuring ofloxacin MIC at 1/4 MIC incubated for 3 days by MTT assay

Mycobacterium avium [8] = details: 104 mc'2 4; remark: listed apart in the source
[9] = tested on: Mycobacterium avium subsp. avium ATCC 25291; remark: listed apart in the source
Description: Inhibition of multidrug resistance efflux pump in Mycobacterium avium ATCC 25291 assessed as potentiation of clarithromycin -induced antibacterial activity by measuring clarithromycin MIC at 1/4 MIC incubated for 3 days by MTT assay

Mycobacterium avium [10] = details: isolate MAV3; remark: listed apart in the source
Mycobacterium avium [11] = details: in vivo, 72 h
Description: Antimycobacterial activity against Mycobacterium avium 104 mc'2 4 assessed as reduction in bacterial viability incubated for 3 days by MTT assay

Mycobacterium avium [12] = details: 104
Mycobacterium avium [13] = details: isolate MAV3; remark: listed apart in the source
Mycobacterium avium [14] = details: 104; remark: listed apart in the source
[15] = tested on: Mycobacterium avium subsp. avium ATCC 25291; remark: listed apart in the source
Description: Inhibition of multidrug resistance efflux pump in Mycobacterium avium ATCC 25291 assessed as potentiation of ethidium bromide-induced antibacterial activity by measuring ethidium bromide MIC at 1/4 MIC incubated for 3 days by MTT assay

Mycobacterium avium [16] = details: isolate MAV3; remark: listed apart in the source
Mycobacterium avium [17] = details: 104 mc'2 3
Mycobacterium avium [18] = details: 104 mc'2 3; remark: listed apart in the source
Mycobacterium avium [19] = details: isolate MAV4
Description: Inhibition of multidrug resistance efflux pump in Mycobacterium avium isolate MAV4 assessed as potentiation of clarithromycin -induced antibacterial activity by measuring clarithromycin MIC at 1/2 MIC incubated for 3 days by MTT assay

Mycobacterium avium [20] = details: 104; remark: listed apart in the source
Mycobacterium avium [21] = details: isolate MAV2; remark: listed apart in the source
Mycobacterium avium [22] = details: isolate MAV4; remark: listed apart in the source
Mycobacterium avium [23] = details: isolate MAV4; remark: listed apart in the source
Mycobacterium avium [24] = test: Antimycobacterial activity against Mycobacterium avium isolate MAV3 assessed as reduction in bacterial viability incubated for 3 days by MTT assay; assay type: organism-based; details: 72 h
Mycobacterium avium [25] = details: 104 mc'2 4; remark: listed apart in the source
Mycobacterium avium [26] = details: 104; remark: listed apart in the source
[27] = Safety index, ratio of CC50 for test compound to CC50 for chlorpromazine for cytotoxicity in human monocyte-derived macrophages; assay type: cell-based, Macrophage cell line
Mycobacterium avium [28] = details: isolate MAV4; remark: listed apart in the source
Description: Inhibition of multidrug resistance efflux pump in Mycobacterium avium isolate MAV4 assessed as potentiation of ethidium bromide-induced antibacterial activity by measuring ethidium bromide MIC at 1/4 MIC incubated for 3 days by MTT assay

Mycobacterium avium [29] = details: isolate MAV3; remark: listed apart in the source
Mycobacterium avium [30] = details: 104 mc'2 3; remark: listed apart in the source
[31] = Cytotoxicity in human monocyte-derived macrophages assessed as reduction in cell viability incubated for 3 days by alamar blue dye based assay; design: species or system Macrophage cell line
Mycobacterium avium [32] = details: isolate MAV2; remark: listed apart in the source
Description: Inhibition of multidrug resistance efflux pump in Mycobacterium avium isolate MAV2 assessed as potentiation of ofloxacin-induced antibacterial activity by measuring ofloxacin MIC at 1/2 MIC incubated for 3 days by MTT assay

Mycobacterium avium [33] = test: Antimycobacterial activity against Mycobacterium avium isolate MAV2 assessed as reduction in bacterial viability incubated for 3 days by MTT assay; assay type: organism-based; details: 72 h
Mycobacterium avium [34] = details: isolate MAV4; remark: listed apart in the source
Description: Inhibition of multidrug resistance efflux pump in Mycobacterium avium isolate MAV4 assessed as potentiation of clarithromycin -induced antibacterial activity by measuring clarithromycin MIC at 1/4 MIC incubated for 3 days by MTT assay

Mycobacterium avium [35] = details: isolate MAV2; remark: listed apart in the source
Mycobacterium avium [36] = details: 104; remark: listed apart in the source
[37] = tested on: Mycobacterium avium subsp. avium ATCC 25291; remark: listed apart in the source
Mycobacterium avium [38] = details: isolate MAV1; remark: listed apart in the source
Description: Inhibition of multidrug resistance efflux pump in Mycobacterium avium isolate MAV1 assessed as potentiation of ciprofloxacin-induced antibacterial activity by measuring ciprofloxacin MIC at 1/2 MIC incubated for 3 days by MTT assay (Rvb = 2 ug/ml)

[39] = tested on: Mycobacterium avium subsp. avium ATCC 25291; remark: listed apart in the source
Mycobacterium avium [40] = details: 104 mc'2 4; remark: listed apart in the source
Mycobacterium avium [41] = details: 104 mc'2 4; remark: listed apart in the source
Mycobacterium avium [42] = details: isolate MAV4; remark: listed apart in the source
Mycobacterium avium [43] = test: Antimycobacterial activity against Mycobacterium avium isolate MAV4 assessed as reduction in bacterial viability incubated for 3 days by MTT assay; assay type: organism-based; details: 72 h
Mycobacterium avium [44] = details: isolate MAV1; remark: listed apart in the source
Mycobacterium avium [45] = details: isolate MAV3; remark: listed apart in the source
Mycobacterium avium [46] = test: Antimycobacterial activity against Mycobacterium avium ATCC 25291 assessed as reduction in bacterial viability incubated for 3 days by MTT assay; assay type: organism-based; details: mycobacterium avium subsp. avium atcc 25291, 72 h
Mycobacterium avium [47] = details: 104 mc'2 4; remark: listed apart in the source
Mycobacterium avium [48] = details: isolate MAV2; remark: listed apart in the source
Mycobacterium avium [49] = details: 104 mc'2 3; remark: listed apart in the source
Mycobacterium avium [50] = details: 104; remark: listed apart in the source
Description: Inhibition of multidrug resistance efflux pump in Mycobacterium avium 104 assessed as potentiation of clarithromycin -induced antibacterial activity by measuring clarithromycin MIC at 1/4 MIC incubated for 3 days by MTT assay

Mycobacterium avium [51] = details: isolate MAV2; remark: listed apart in the source
Mycobacterium avium [52] = details: isolate MAV2; remark: listed apart in the source
Mycobacterium avium [53] = details: isolate MAV2; remark: listed apart in the source
Description: Inhibition of multidrug resistance efflux pump in Mycobacterium avium isolate MAV2 assessed as potentiation of clarithromycin -induced antibacterial activity by measuring clarithromycin MIC at 1/2 MIC incubated for 3 days by MTT assay (Rvb = >1024 ug/ml)

Mycobacterium avium [54] = details: isolate MAV1; remark: listed apart in the source
Mycobacterium avium [55] = details: 104 mc'2 4; remark: listed apart in the source
Mycobacterium avium [56] = details: 104; remark: listed apart in the source
Mycobacterium avium [57] = details: isolate MAV3; remark: listed apart in the source
[58] = tested on: Mycobacterium avium subsp. avium ATCC 25291; remark: listed apart in the source
Description: Inhibition of multidrug resistance efflux pump in Mycobacterium avium ATCC 25291 assessed as potentiation of clarithromycin -induced antibacterial activity by measuring clarithromycin MIC at 1/2 MIC incubated for 3 days by MTT assay

Mycobacterium avium [59] = details: 72 h
Description: Antimycobacterial activity against Mycobacterium avium 104 assessed as reduction in bacterial viability incubated for 3 days by MTT assay

Mycobacterium avium [60] = details: 104; remark: listed apart in the source
Mycobacterium avium [61] = details: isolate MAV3; remark: listed apart in the source
[62] = Safety index, ratio of MTC for test compound to MTC for thioridazine for cytotoxicity in human monocyte-derived macrophages; assay type: cell-based, Macrophage cell line
Mycobacterium avium [63] = details: 104 mc'2 3; remark: listed apart in the source
Mycobacterium avium [64] = test: Antimycobacterial activity against Mycobacterium avium isolate MAV1 assessed as reduction in bacterial viability incubated for 3 days by MTT assay; assay type: organism-based; details: in vitro, 72 h
Mycobacterium avium [65] = details: 104 mc'2 3; remark: listed apart in the source
Mycobacterium avium [66] = details: isolate MAV4; remark: listed apart in the source

## CCCOc1ccc(-c2cn(CCN(CC)CC)c3ccccc3c2=O)cc1
Mycobacterium avium [1]
  MIC: 12.5 µg/mL (≈ 33 µM)
[2]
  MIC: 8 µg/mL (≈ 21.1 µM)
Mycobacterium avium [3]
  MIC: 128 µg/mL (≈ 338 µM)
[4]
  selectivity ratio: 2 to 4
Mycobacterium avium [5]
  MIC: 2 µg/mL (≈ 5.28 µM)
Mycobacterium avium [6]
  MIC: 256 µg/mL (≈ 676 µM)
Mycobacterium avium [7]
  MIC: 2 µg/mL (≈ 5.28 µM)
Mycobacterium avium [8]
  MIC: 512 µg/mL (≈ 1350 µM)
[9]
  MIC: 8 µg/mL (≈ 21.1 µM)
Mycobacterium avium [10]
  MIC: 4 µg/mL (≈ 10.6 µM)
Mycobacterium avium [11]
  MIC: 256 µg/mL (≈ 676 µM)
Mycobacterium avium [12]
  MIC: 1 µg/mL (≈ 2.64 µM)
Mycobacterium avium [13]
  MIC: 256 µg/mL (≈ 676 µM)
Mycobacterium avium [14]
  MIC: 16 µg/mL (≈ 42.3 µM)
[15]
  MIC: 25 µg/mL (≈ 66 µM)
Mycobacterium avium [16]
  MIC: 128 µg/mL (≈ 338 µM)
Mycobacterium avium [17]
  MIC: 6.25 µg/mL (≈ 16.5 µM)
Mycobacterium avium [18]
  MIC: 2 µg/mL (≈ 5.28 µM)
Mycobacterium avium [19]
  MIC: 1 µg/mL (≈ 2.64 µM)
Mycobacterium avium [20]
  MIC: 3.12 µg/mL (≈ 8.26 µM)
Mycobacterium avium [21]
  MIC: 0.5 µg/mL (≈ 1.32 µM)
Mycobacterium avium [22]
  MIC: 16 µg/mL (≈ 42.3 µM)
Mycobacterium avium [23]
  MIC: 4 µg/mL (≈ 10.6 µM)
Mycobacterium avium [24]
  MIC: 128 µg/mL (≈ 338 µM)
Mycobacterium avium [25]
  MIC: 256 µg/mL (≈ 676 µM)
Mycobacterium avium [26]
  MIC: 32 µg/mL (≈ 84.5 µM)
[27]
  selectivity ratio: 2 to 4
Mycobacterium avium [28]
  MIC: 12.5 µg/mL (≈ 33 µM)
Mycobacterium avium [29]
  MIC: 4 µg/mL (≈ 10.6 µM)
Mycobacterium avium [30]
  MIC: 512 µg/mL (≈ 1350 µM)
[31]; human monocyte-derived macrophages
  CC50 at 72 h: 56.9 µM
[31]; macrophage cell line, 72 h
  MTC: 10 µM
Mycobacterium avium [32]
  MIC: 1 µg/mL (≈ 2.64 µM)
Mycobacterium avium [33]
  MIC: 256 µg/mL (≈ 676 µM)
Mycobacterium avium [34]
  MIC: 8 µg/mL (≈ 21.1 µM)
Mycobacterium avium [35]
  MIC: 16 µg/mL (≈ 42.3 µM)
Mycobacterium avium [36]
  MIC: 4 µg/mL (≈ 10.6 µM)
[37]
  MIC: 16 µg/mL (≈ 42.3 µM)
Mycobacterium avium [38]
  MIC: 2 µg/mL (≈ 5.28 µM)
[39]
  MIC: 16 µg/mL (≈ 42.3 µM)
Mycobacterium avium [40]
  MIC: 4 µg/mL (≈ 10.6 µM)
Mycobacterium avium [41]
  MIC: 8 µg/mL (≈ 21.1 µM)
Mycobacterium avium [42]
  MIC: 8 µg/mL (≈ 21.1 µM)
Mycobacterium avium [43]
  MIC: 256 µg/mL (≈ 676 µM)
Mycobacterium avium [44]
  MIC: 8 µg/mL (≈ 21.1 µM)
Mycobacterium avium [45]
  MIC: 16 µg/mL (≈ 42.3 µM)
Mycobacterium avium [46]
  MIC: 256 µg/mL (≈ 676 µM)
Mycobacterium avium [47]
  MIC: 3.12 µg/mL (≈ 8.26 µM)
Mycobacterium avium [48]
  MIC: 2 µg/mL (≈ 5.28 µM)
Mycobacterium avium [49]
  MIC: 128 µg/mL (≈ 338 µM)
Mycobacterium avium [50]
  MIC: 1 µg/mL (≈ 2.64 µM)
Mycobacterium avium [51]
  MIC: 512 µg/mL (≈ 1350 µM)
Mycobacterium avium [52]
  MIC: > 512 µg/mL
Mycobacterium avium [53]
  MIC: 64 µg/mL (≈ 169 µM)
Mycobacterium avium [54]
  MIC: 3.12 µg/mL (≈ 8.26 µM)
Mycobacterium avium [55]
  MIC: 512 µg/mL (≈ 1350 µM)
Mycobacterium avium [56]
  MIC: < 2 µg/mL
Mycobacterium avium [57]
  MIC: 8 µg/mL (≈ 21.1 µM)
[58]
  MIC: 8 µg/mL (≈ 21.1 µM)
Mycobacterium avium [59]
  MIC: 256 µg/mL (≈ 676 µM)
Mycobacterium avium [60]
  MIC: 6.25 µg/mL (≈ 16.5 µM)
Mycobacterium avium [61]
  MIC: 32 µg/mL (≈ 84.5 µM)
[62]
  selectivity ratio: 4 to 6
Mycobacterium avium [63]
  MIC: 8 µg/mL (≈ 21.1 µM)
Mycobacterium avium [64]
  MIC: 128 µg/mL (≈ 338 µM)
Mycobacterium avium [65]
  MIC: 512 µg/mL (≈ 1350 µM)
Mycobacterium avium [66]
  MIC: 256 µg/mL (≈ 676 µM)
